Measured values as given in PubChem BioAssay AID328 (DTP/NCI, 2004).
“And” between values parts separate entries of the source, which are not always exact repeats. Equal entries are not always repeated. Toxic doses and inconclusive results are not listed.

Test system: BDF1 mice, P388 leukemia ip, median survival T/C
Experiment: NCI In Vivo Anticancer Drug Screen. Data for tumor model P388 Leukemia (intraperitoneal) in B6D2F1 (BDF1) mice
Conditions: endpoint: median survival time, higher = longer survival
Summary of the method: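 Each value expresses how treatment altered survival: treated-mouse outcome over vehicle-mouse outcome, both groups bearing the transplanted tumour.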

[1] = dose: 100.0 mg/kg/injection, schedule: Q01DX009 (ip), vehicle: saline with Tween-80
[2] = dose: 200.0 mg/kg/injection, schedule: Q01DX009 (ip), vehicle: saline with Tween-80
[3] = dose: 400.0 mg/kg/injection, schedule: Q01DX009 (ip), vehicle: saline with Tween-80
[4] = dose: 50.0 mg/kg/injection, schedule: Q01DX009 (ip), vehicle: saline with Tween-80
[5] = dose: 12.5 mg/kg/injection, schedule: Q04DX003 (ip), vehicle: saline with Tween-80
[6] = dose: 25.0 mg/kg/injection, schedule: Q04DX003 (ip), vehicle: saline with Tween-80
[7] = dose: 50.0 mg/kg/injection, schedule: Q04DX003 (ip), vehicle: saline with Tween-80
[8] = dose: 12.5 mg/kg/injection, schedule: Q01DX009 (ip), vehicle: saline with Tween-80
[9] = dose: 25.0 mg/kg/injection, schedule: Q01DX009 (ip), vehicle: saline with Tween-80
[10] = dose: 100.0 mg/kg/injection, schedule: Q04DX003 (ip), vehicle: saline with Tween-80
[11] = dose: 200.0 mg/kg/injection, schedule: Q04DX003 (ip), vehicle: saline with Tween-80
[12] = dose: 100.0 mg/kg/injection, schedule: Q01DX009 (ip), vehicle: saline
[13] = dose: 200.0 mg/kg/injection, schedule: Q01DX009 (ip), vehicle: saline
[14] = dose: 400.0 mg/kg/injection, schedule: Q04DX003 (ip), vehicle: saline with Tween-80

With `Cc1cc2c3ccccc3ccc2[n+]2ccccc12` the T/C (dose: 4.1 mg/kg/injection, schedule: Q01DX009 (ip), vehicle: saline) was 120 % of control, the T/C (dose: 9.37 mg/kg/injection, schedule: Q01DX009 (ip), vehicle: saline) was 161 % of control and the T/C (dose: 18.75 mg/kg/injection, schedule: Q01DX009 (ip), vehicle: saline) was 171 % of control and 180 % of control. For the same compound, the T/C (dose: 28.12 mg/kg/injection, schedule: Q01DX009 (ip), vehicle: saline) was 190 % of control and the T/C (dose: 37.5 mg/kg/injection, schedule: Q04DX003 (ip), vehicle: alcohol) was 112 % of control.

`CCC(=O)O[C@H]1CC[C@H]2[C@@H]3C[C@H](C)C4=CC(=O)C=C[C@]4(C)[C@H]3C(=O)C[C@]12C` was tested, and the T/C [1] was 100 % of control, the T/C [2] was 91 % of control and the T/C [3] was 95 % of control.

`CC(C)(C)[N]1[Si](C)(C)[N](C(C)(C)C)[Sn]12[S][Sn]1([S]2)[N](C(C)(C)C)[Si](C)(C)[N]1C(C)(C)C` was tested, and the T/C [4] was 100 % of control, the T/C [1] was 94 % of control and the T/C [2] was 86 % of control.

For `O=NN(CCCl)C(=O)Nc1ccccc1`, the T/C (dose: 8.0 mg/kg/injection, schedule: Q04DX003 (ip), vehicle: saline with Tween-80) was 233 % of control, the T/C (dose: 8.25 mg/kg/injection, schedule: Q04DX003 (ip), vehicle: saline with Tween-80) was 231 % of control and the T/C (dose: 12.0 mg/kg/injection, schedule: Q04DX003 (ip), vehicle: saline with Tween-80) was 311 % of control. For the same compound, the T/C [5] was 272 % of control, the T/C (dose: 18.0 mg/kg/injection, schedule: Q04DX003 (ip), vehicle: saline with Tween-80) was 261 % of control and the T/C (dose: 18.75 mg/kg/injection, schedule: Q04DX003 (ip), vehicle: saline with Tween-80) was 104 % of control.

In the case of `CCOC(=O)C(=O)C1CCNC1=O` (centres undefined), the T/C [5] is reported as 100 % of control, the T/C [6] is reported as 100 % of control and the T/C [7] is reported as 100 % of control.

In the case of `O=C1c2ccccc2C(=O)c2c(O)ccc(O)c21`, the T/C [1] is reported as 104 % of control, the T/C [2] is reported as 109 % of control and the T/C [3] is reported as 109 % of control.

For `OCCCN1CCC2(CC1)SSC1(CCN(CCCO)CC1)S2`, the T/C (dose: 50.0 mg/kg/injection, schedule: Q04DX003 (ip), vehicle: saline) was 95 % of control, the T/C (dose: 100.0 mg/kg/injection, schedule: Q04DX003 (ip), vehicle: saline) was 100 % of control and 109 % of control and the T/C (dose: 200.0 mg/kg/injection, schedule: Q04DX003 (ip), vehicle: saline) was 100 % of control and 104 % of control.

`COc1cc(-c2ccc(NC(=O)NC3CC3)c(OC)c2)ccc1NC(=O)NC1CC1` was tested, and the T/C (dose: 50.0 mg/kg/injection, schedule: Q01DX005 (ip), vehicle: saline with Tween-80) was 89 % of control and the T/C (dose: 100.0 mg/kg/injection, schedule: Q01DX005 (ip), vehicle: saline with Tween-80) was 91 % of control.

In the case of `[NH2-].[NH2-].[NH2-].[NH2-].[Pt+4]`, the T/C [8] is reported as 90 % of control, the T/C [9] is reported as 100 % of control and the T/C [4] is reported as 90 % of control.

In the case of `CCOC1OCN(c2cccc(Cl)c2)CC1(C)C` (centres undefined), the T/C [4] is reported as 98 % of control, the T/C [1] is reported as 112 % of control and the T/C [2] is reported as 114 % of control.

`O=C(NCCNc1ccc(F)cc1)C12CC3CC(CC(C3)C1)C2` was tested, and the T/C [4] was 91 % of control, the T/C [1] was 104 % of control and the T/C [2] was 97 % of control.

For `CCCCCCCCCCCCCCCCOc1c(Br)cc(Br)cc1Br`, the T/C (dose: 50.0 mg/kg/injection, schedule: Q01DX001 (ip), vehicle: saline with Tween-80) was 90 % of control.

In the case of `CCOC(=O)Sc1ncnc2nc[nH]c12`, the T/C [1] is reported as 109 % of control and the T/C [2] is reported as 90 % of control.

In the case of `OCCOc1c(Cl)cc(Cl)cc1Cl`, the T/C [4] is reported as 100 % of control, the T/C [1] is reported as 100 % of control and the T/C [10] is reported as 113 % of control. For the same compound, the T/C [2] was 100 % of control and the T/C [11] was 100 % of control.

With `NC(Cc1cc(Cl)c(O)c(Cl)c1)C(=O)O` (centres undefined) the T/C [12] was 94 % of control, the T/C (dose: 150.0 mg/kg/injection, schedule: Q01DX009 (ip), vehicle: saline) was 97 % of control and the T/C [13] was 105 % of control.

With `NC(=S)S/C=C/C(=O)O` the T/C [4] was 96 % of control, the T/C [7] was 100 % of control and the T/C [1] was 94 % of control. The T/C [10] was 107 % of control, the T/C [2] was 100 % of control and the T/C [11] was 103 % of control. For the same compound, the T/C [14] was 115 % of control.

For `CC(=O)N1C(=O)NC(=O)C1(C)c1ccc(Cl)s1` (centres undefined), the T/C [4] was 92 % of control, the T/C [1] was 97 % of control and the T/C [10] was 100 % of control. The T/C [2] was 113 % of control, the T/C [11] was 100 % of control and the T/C [3] was 106 % of control.

`NC(=S)c1ncc(N)s1` was tested, and the T/C [9] was 89 % of control, the T/C [4] was 98 % of control and the T/C [1] was 106 % of control.

For `COc1ccc2c(c1OC)C1(CCN(C)C)CC(=O)CCC1C=C2` (centres undefined), the T/C (dose: 6.25 mg/kg/injection, schedule: Q01DX009 (ip), vehicle: Klucel (hydroxypropylcellulose) (HPC)) was 90 % of control, the T/C (dose: 12.5 mg/kg/injection, schedule: Q01DX009 (ip), vehicle: Klucel (hydroxypropylcellulose) (HPC)) was 105 % of control and the T/C (dose: 12.5 mg/kg/injection, schedule: Q04DX003 (ip), vehicle: Klucel (hydroxypropylcellulose) (HPC)) was 86 % of control. For the same compound, the T/C (dose: 25.0 mg/kg/injection, schedule: Q01DX009 (ip), vehicle: Klucel (hydroxypropylcellulose) (HPC)) was 100 % of control, the T/C (dose: 25.0 mg/kg/injection, schedule: Q04DX003 (ip), vehicle: Klucel (hydroxypropylcellulose) (HPC)) was 108 % of control and the T/C (dose: 35.0 mg/kg/injection, schedule: Q01DX009 (ip), vehicle: Klucel (hydroxypropylcellulose) (HPC)) was 113 % of control. The T/C (dose: 50.0 mg/kg/injection, schedule: Q04DX003 (ip), vehicle: Klucel (hydroxypropylcellulose) (HPC)) was 100 % of control, the T/C (dose: 55.0 mg/kg/injection, schedule: Q01DX009 (ip), vehicle: Klucel (hydroxypropylcellulose) (HPC)) was 118 % of control and the T/C (dose: 80.0 mg/kg/injection, schedule: Q01DX009 (ip), vehicle: Klucel (hydroxypropylcellulose) (HPC)) was 118 % of control. The T/C (dose: 100.0 mg/kg/injection, schedule: Q04DX003 (ip), vehicle: Klucel (hydroxypropylcellulose) (HPC)) was 95 % of control, the T/C (dose: 120.0 mg/kg/injection, schedule: Q01DX009 (ip), vehicle: Klucel (hydroxypropylcellulose) (HPC)) was 100 % of control and the T/C (dose: 180.0 mg/kg/injection, schedule: Q01DX009 (ip), vehicle: Klucel (hydroxypropylcellulose) (HPC)) was 108 % of control.

For `CC(=O)C(=O)NC1/C=C(C)\C=C/C(O)C/C=C(C)\C=C/C(O)CC2OC(=O)C1(C)C(=O)C2C` (centres undefined), the T/C (dose: 50.0 mg/kg/injection, schedule: Q01DX009 (ip), vehicle: Klucel (hydroxypropylcellulose) (HPC)) was 109 % of control and 122 % of control, the T/C (dose: 200.0 mg/kg/injection, schedule: Q01DX009 (ip), vehicle: Klucel (hydroxypropylcellulose) (HPC)) was 153 % of control and 163 % of control and the T/C (dose: 400.0 mg/kg/injection, schedule: Q01DX009 (ip), vehicle: Klucel (hydroxypropylcellulose) (HPC)) was 171 % of control.

With `N#CC(C#N)=Cc1ccc2c(c1)CCC2` the T/C (dose: 5.0 mg/kg/injection, schedule: Q04DX003 (ip), vehicle: saline with Tween-80) was 104 % of control, the T/C (dose: 9.5 mg/kg/injection, schedule: Q01DX009 (ip), vehicle: saline with Tween-80) was 104 % of control and the T/C (dose: 10.0 mg/kg/injection, schedule: Q04DX003 (ip), vehicle: saline with Tween-80) was 95 % of control. The T/C (dose: 19.0 mg/kg/injection, schedule: Q01DX009 (ip), vehicle: saline with Tween-80) was 109 % of control, the T/C (dose: 20.0 mg/kg/injection, schedule: Q04DX003 (ip), vehicle: saline with Tween-80) was 95 % of control and the T/C (dose: 38.0 mg/kg/injection, schedule: Q01DX009 (ip), vehicle: saline with Tween-80) was 86 % of control and 100 % of control.

With `NC(N)=N/N=C\c1c2ccccc2cc2ccccc12` the T/C (dose: 3.13 mg/kg/injection, schedule: Q01DX009 (ip), vehicle: other) was 155 % of control, the T/C (dose: 6.25 mg/kg/injection, schedule: Q01DX009 (ip), vehicle: other) was 155 % of control and the T/C (dose: 12.5 mg/kg/injection, schedule: Q01DX009 (ip), vehicle: other) was 157 % of control.

With `C=C1CC2(CC(C)(C)CC(C)(C)C2)OC1=O` the T/C [10] was 97 % of control, the T/C [11] was 112 % of control and the T/C [14] was 106 % of control.

With `N#CCCN(C(=S)Nc1cccc(C(F)(F)F)c1)C1CCCCC1` the T/C [4] was 114 % of control and 123 % of control, the T/C [1] was 110 % of control and 111 % of control and the T/C [2] was 106 % of control.

For `C/C(Cc1ccccc1)=N/N(C)C`, the T/C [6] was 108 % of control, the T/C [7] was 100 % of control and the T/C [10] was 104 % of control.

In the case of `Nc1n[nH]c(N)n1`, the T/C [12] is reported as 113 % of control and the T/C [13] is reported as 113 % of control.

For `O=C(O)C1CCC=CCC1`, the T/C (dose: 50.0 mg/kg/injection, schedule: Q04DX003 (ip), vehicle: other) was 100 % of control, the T/C (dose: 100.0 mg/kg/injection, schedule: Q04DX003 (ip), vehicle: other) was 100 % of control and the T/C (dose: 200.0 mg/kg/injection, schedule: Q04DX003 (ip), vehicle: other) was 109 % of control.

In the case of `COC1(OC)OC(c2ccccc2)=C(C#N)C(/C=C\c2ccccc2)C1(OC)OC` (centres undefined), the T/C [8] is reported as 100 % of control, the T/C [9] is reported as 91 % of control and the T/C [4] is reported as 90 % of control and 91 % of control. For the same compound, the T/C [2] was 106 % of control.

For `C#CCOCC1CNC(=S)O1` (centres undefined), the T/C [1] was 100 % of control, the T/C [2] was 100 % of control and the T/C [3] was 100 % of control.
